Assay results taken from PMC4704863 (Angewandte Chemie (International ed. in English), 2014).
Ends that are not written are not given here. Peptide text beside a SMILES is read from it. * marks the point of attachment. Palmitoyl = CCCCCCCCCCCCCCCC(=O)*

What was measured:
Col-24 epithelial layers = test: Antisecretory responses; type: cell-based, human
hY4R [1] = biological target: T1, hY4R (Homo sapiens, UniProt P50391); test: Arr3–receptor interaction by BRET; type: cell-based; conditions: arr3 association after 10 min
T1 sequence (P50391 whole entry): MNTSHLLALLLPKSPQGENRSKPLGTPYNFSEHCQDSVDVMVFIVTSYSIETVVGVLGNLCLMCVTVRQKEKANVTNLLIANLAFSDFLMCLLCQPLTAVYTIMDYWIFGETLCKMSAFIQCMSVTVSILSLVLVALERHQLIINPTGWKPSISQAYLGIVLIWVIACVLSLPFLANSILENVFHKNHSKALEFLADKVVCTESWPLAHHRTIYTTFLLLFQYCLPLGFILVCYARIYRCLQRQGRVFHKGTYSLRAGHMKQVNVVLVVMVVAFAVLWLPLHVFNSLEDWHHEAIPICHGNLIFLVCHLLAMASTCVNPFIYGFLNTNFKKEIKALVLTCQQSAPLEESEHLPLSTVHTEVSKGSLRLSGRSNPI

hY4R [2] = biological target: T1, hY4R; type: cell-based; conditions: Col-24 epithelial layers, response to 10 nM hPP after prestimulation
[3] = biological target: human neuropeptide Y receptor Y4 (hY4R) (human) (UniProt P50391); test: radioligand binding
human neuropeptide Y receptor Y4 (hY4R) (human), sequence (P50391 whole entry): as above

[4] = biological target: human neuropeptide Y receptor Y4 (hY4R) (human, UniProt P50391 1-375); test: radioligand binding
human neuropeptide Y receptor Y4 (hY4R), sequence (P50391 whole entry): as above

[5] = Col-24 epithelial layers, 100 nM peptide

Molecule | Isc response, time course (Col-24 epithelial layers; [5]) | arr3 recruitment, maximal netBRET (BRETmax) (hY4R [1]) | Desensitization of hY4R after prestimulation (hY4R [2]) | IC50 [3] [nM] | other results
CCCCCCCCCCCCCCCC(=O)NCCCC[C@H](NC(=O)[C@H](C)NC(=O)[C@H](Cc1ccc(O)cc1)NC(=O)[C@H](CCC(N)=O)NC(=O)[C@H](C)NC(=O)[C@H](CCSC)NC(=O)[C@H](CCC(N)=O)NC(=O)[C@H](CCC(=O)O)NC(=O)[C@@H]1CCCN1C(=O)[C@@H](NC(=O)[C@H](C)NC(=O)[C@H](CC(N)=O)NC(=O)[C@H](CC(=O)O)NC(=O)CNC(=O)[C@@H]1CCCN1C(=O)[C@H](Cc1ccc(O)cc1)NC(=O)[C@@H](NC(=O)[C@@H]1CCCN1C(=O)[C@H](CCC(=O)O)NC(=O)[C@H](CC(C)C)NC(=O)[C@@H]1CCCN1C(=O)[C@H](C)N)C(C)C)[C@@H](C)O)C(=O)N[C@@H](CC(=O)O)C(=O)N[C@@H](CC(C)C)C(=O)N[C@@H](CCCNC(=N)N)C(=O)N[C@@H](CCCNC(=N)N)C(=O)N[C@@H](Cc1ccc(O)cc1)C(=O)N[C@H](C(=O)N[C@@H](CC(N)=O)C(=O)N[C@@H](CCSC)C(=O)N[C@@H](CC(C)C)C(=O)N[C@H](C(=O)N[C@@H](CCCNC(=N)N)C(=O)N[C@@H](CCC(N)=O)C(=O)N[C@@H](CCCNC(=N)N)C(=O)N[C@@H](Cc1ccc(O)cc1)C(N)=O)[C@@H](C)O)[C@@H](C)CC [3A] (H-APLEPVYPGDNATPEQMAQYAK(Palmitoyl)DLRRYINMLTRQRY-NH2; N-terminus and C-terminus assumed) | prolonged reductions in Isc | increased arr3 recruitment | concentration-dependent desensitization |  | Concentration–response in Col-24 cells (potency and efficacy) (Col-24 epithelial layers; Col-24 cells, Isc): good activity and increased efficacy; Onset of Isc response (Col-24 epithelial layers; [5]): delayed; Maximum of Isc response (Col-24 epithelial layers; Col-24 epithelial layers, 100 nM peptide, compared with 2A): higher maximum than the parental peptide
APLEPVYPGDNATPEQMAQYAKDLRRYINMLTRQRY-NH2 [2A] | rapid and transient activity | robust arr3 recruitment | concentration-dependent desensitization |  | Time of maximum Isc effect (Col-24 epithelial layers; [5]): about 5 min
PEG5-modified [K^22,Q^34]hPP (4A) (peptide) |  |  |  | 36.8 | 
PEG22-modified [K^22,Q^34]hPP (5A) (peptide) |  |  |  | 94.2 | 
palmitoylated [K^22,Q^34]hPP (3A) (peptide) |  |  |  | 1.2 | 
APLEPVYPGDNATPEQMAQYAKDLRRYINMLTRQRY (ends and bridges not checked) [lead peptide 2A ([Q^34]hPP core sequence, Obinepitide)] |  |  |  |  | IC50 [4]: 0.5 nM
